Results reported in patent publication US20130096104A1, “IMIDAZOPYRIDINE COMPOUNDS, COMPOSITIONS AND METHODS OF USE” (GENENTECH, INC., priority 2010, published 2013).

These molecules were tested against T1, TYK2 kinase domain (Homo sapiens, UniProt P29597) (assay: TYK2 inhibition assay (Example A, Caliper LabChip peptide phosphorylation)). Conditions: isolated kinase domain, 1 nM TYK2, 25 uM ATP, Morrison tight binding model.
T1 construct: The activity of the isolated JAK1, JAK2 or TYK2 kinase domain was measured
T1 sequence (P29597 897-1176 limits assumed): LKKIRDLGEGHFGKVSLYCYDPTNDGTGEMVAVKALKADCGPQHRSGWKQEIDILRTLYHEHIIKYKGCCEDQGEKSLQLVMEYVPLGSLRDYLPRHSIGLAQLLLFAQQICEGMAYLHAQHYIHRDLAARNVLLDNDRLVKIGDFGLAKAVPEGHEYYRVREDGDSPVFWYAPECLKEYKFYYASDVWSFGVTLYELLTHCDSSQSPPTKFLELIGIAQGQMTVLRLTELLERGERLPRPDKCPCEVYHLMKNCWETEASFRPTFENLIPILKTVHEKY
Format: biochemical
Description: The activity of the isolated JAK1, JAK2 or TYK2 kinase domain was measured by monitoring phosphorylation of a peptide derived from JAK3 ([…] fluorescently labeled on the N-terminus with 5-carboxyfluorescein using the Caliper LabChip technology (Caliper Life Sciences, Hopkinton, Mass.). […] Reactions were incubated at 22° C. in 384-well polypropylene microtiter plates for 30 minutes and then stopped by addition of 25 uL of an EDTA containing solution (100 mM Hepes pH 7.2, 0.015% Brij-35, 150 mM EDTA), resulting in a final EDTA concentration of 50 mM. After termination of the kinase reaction, the proportion of phosphorylated product was determined as a fraction of total peptide substrate using the Caliper LabChip 3000 according to the manufacturer's specifications. Ki values were then determined using the Morrison tight binding model. Morrison, J. F., Biochim. Biophys. Acta. 185:269-296 (1969); William, J. W. and Morrison, J. F., Meth. Enzymol., 63:437-467 (1979).

Compound | Ki
Fc1cccc(Cl)c1-c1nc2ccnc(Nc3cnccn3)c2[nH]1 [Example 6, 2-(2-chloro-6-fluorophenyl)-N-(pyrazin-2-yl)-3H-imidazo[4,5-e]-pyridin-4-amine] | 3.1 nM
O=C(Nc1nccc2nc(-c3c(Cl)cccc3Cl)[nH]c12)c1cncs1 [Example 7, N-(2-(2,6-dichlorophenyl)-3H-imidazo[4,5-c]pyridin-4-yl) thiazole-5-carboxamide] | 7.8 nM
N#Cc1cc(Cl)c(-c2nc3ccnc(NC(=O)C4CC4)c3[nH]2)c(Cl)c1 [Example 10, N-(2-(2,6-dichloro-4-cyanophenyl)-3H-imidazo[4,5-c]pyridin-4-yl)cyclopropanecarboxamide] | 2.5 nM
CNC(=O)Nc1nccc2nc(-c3c(Cl)cccc3Cl)[nH]c12 [Example 11, 1-(2-(2,6-dichlorophenyl)-3H-imidazo[4,5-e]pyridin-4-yl)-3-methylurea] | 4.9 nM
Clc1cccc(Cl)c1-c1nc2c(Nc3ccncn3)ncnc2[nH]1 [Example 14, 8-(2,6-dichlorophenyl)-N-(pyrimidin-4-yl)-9H-purin-6-amine] | 2.8 nM
Cc1cc(Nc2ncc(F)c3[nH]c(-c4c(Cl)cccc4Cl)nc23)nc(C)n1 [Example 16, 2-(2,6-dichlorophenyl)-N-(2,6-dimethylpyrimidin-4-yl)-7-fluoro-1H-imidazo[4,5-c]pyridin-4-amine] | 2.3 nM
Cc1nc(Nc2ncnc3nc(-c4c(Cl)cccc4Cl)[nH]c23)cc(N2CCN(CCO)CC2)n1 [Example 167, 2-(4-{6-[8-(2,6-Dichloro-phenyl)-7H-purin-6-ylamino]-2-methyl-pyrimidin-4-yl}-piperazin-1-yl)-ethanol] | 7.2 nM
N#Cc1cc(Cl)c(-c2nc3ncnc(Nc4ccc(N5CCOCC5)cn4)c3[nH]2)c(Cl)c1 [Example 197, 3,5-dichloro-4-(6-(5-morpholinopyridin-2-ylamino)-7H-purin-8-yl)benzonitrile] | 1.4 nM
O=C(Nc1ncnc2c1nc(-c1c(Cl)cccc1Cl)n2CCO)C1CC1 [Example 439, Cyclopropanecarboxylic acid [8-(2,6-dichloro-phenyl)-9-(2-hydroxy-ethyl)-9H-purin-6-yl]-amide] | 835 nM

More lines, in order of falling Ki, values ahead:

Ki | Compound
56.5 nM | Cn1c(-c2c(Cl)cccc2Cl)nc2c(Nc3ccncc3)ncnc21 [Example 215, 8-(2,6-dichlorophenyl)-9-methyl-N-(pyridin-4-yl)-9H-purin-6-amine]
56 nM | COC(=O)Nc1ncnc2nc(-c3c(F)cccc3Cl)[nH]c12 [Example 208, methyl 8-(2-chloro-6-fluorophenyl)-7H-purin-6-ylcarbamate]
27.8 nM | O=C(Nc1ncnc2nc(-c3c(F)cccc3Cl)[nH]c12)C1CC1 [Example 210, N-(8-(2-chloro-6-fluorophenyl)-7H-purin-6-yl)cyclopropanecarboxamide]
27.2 nM | CNC(=O)Nc1ncnc2nc(-c3c(Cl)cccc3Cl)[nH]c12 [Example 171, 1-(8-(2,6-dichlorophenyl)-7H-purin-6-yl)-3-methylurea]
19.5 nM | Cn1c(-c2c(Cl)cccc2Cl)nc2ccnc(NC(=O)C3CC3)c21 [Example 13, N-(2-(2,6-dichlorophenyl)-3-methyl-3H-imidazo[4,5-c]pyridine-4-yl)cyclopropanecarboxamide]
14.5 nM | Clc1cccc(Cl)c1-c1nc2ccnc(Nc3cn[nH]c3)c2[nH]1 [Example 3, 2-(2,6-dichlorophenyl)-N-(1H-pyrazol-4-yl)-3H-imidazo[4,5-e]-pyridin-4-amine]
13.3 nM | Cn1c(-c2c(Cl)cccc2Cl)nc2c(NC(=O)C3CC3)nccc21 [Example 12, N-(2-(2,6-dichlorophenyl)-1-methyl-1H-imidazo[4,5-c]pyridine-4-yl)cyclopropanecarboxamide]
8.1 nM | O=C(Nc1ncnc2nc(-c3c(Cl)cccc3Cl)[nH]c12)C1CC1 [Example 15, N-(8-(2,6-dichlorophenyl)-7H-purin-6-yl)cyclopropanecarboxamide]
1.7 nM | Clc1cccc(Cl)c1-c1nc2c(Nc3ccccn3)nccc2[nH]1 [Example 1, 2-(2,6-dichlorophenyl)-N-(pyridin-2-yl)-1H-imidazo[4,5-e]pyridin-4-amine]
1.5 nM | Cc1ccc(Nc2ncnc3nc(-c4c(Cl)cccc4Cl)[nH]c23)nc1 [Example 179, 8-(2,6-dichlorophenyl)-N-(5-methylpyridin-2-yl)-7H-purin-6-amine]
0.8 nM | O=C(Nc1ncc(Cl)c2[nH]c(-c3c(Cl)cccc3Cl)nc12)C1CC1 [Example 447, Cyclopropanecarboxylic acid [7-chloro-2-(2,6-dichloro-phenyl)-1H-imidazo[4,5-c]pyridin-4-yl]-amide]
0.6 nM | Clc1cccc(Cl)c1-c1nc2ccnc(Nc3cc(N4CCOCC4)ncn3)c2[nH]1 [Example 5, 2-(2,6-dichlorophenyl)-N-(6-morpholinopyrimidin-4-yl)-3H-imidazo[4,5-e]pyridin-4-amine]
